Tested on: human embryonic stem cell line H1
Test: Real-time PCR gene expression, BMP inhibition and PKC activation at S3 (Example 2)
Format: cell-based
Conditions: 50 nM compared with 200 nM at S3
Protocol: Cells of the human embryonic stem cell line H1 were harvested at various passages (passage 40 to passage 52) and were seeded as single cells at a density of 100,000 cells/cm^2 on MATRIGEL™ (1:30 dilution) coated dishes in mTesr™1 media supplemented with 10 μM of Y27632. Forty eight hours post-seeding, cultures were differentiated into cells of the pancreatic endocrine lineage as follows: • a. Stage 1 (Definitive Endoderm (DE)—3 days): Prior to start of DE, the cultures were washed and incubated with incomplete PBS (no Mg or Ca) for 30 seconds followed by addition of the stage 1 media. Human embryonic stem cells cultured as single cells on MATRIGEL™-coated dishes were treated with MCDB-131 medium supplemented with 0.1% fatty acid-free BSA, 0.0012 g/ml sodium bicarbonate, 1× GLUTAMAX™, and 2.5 mM D-Glucose, 100 ng/ml GDF8, and […] MCX compound (GSK3B inhibitor) for one day. Cells were then treated with MCDB-131 medium supplemented with 0.1% fatty acid-free BSA, 0.0012 g/ml sodium bicarbonate, 1× GLUTAMAX™, 2.5 mM glucose, and 100 ng/ml GDF8 for days 2-3. • b. […]
mRNA was collected at S2-S4 for all the conditions listed above and analyzed using real-time PCR. […]

c1ccc2c(-c3cnn4cc(-c5ccc(N6CCNCC6)cc5)cnc34)ccnc2c1 [LDN-193189]
induction of endocrine markers (chromogranin and NGN3): as effective as 200 nM LDN-193189
